Assay results from US20250154197A1, “LIPOLYTIC PEPTIDES” (FUNDACIÓ HOSPITAL UNIVERSITARI VALL D'HEBRON - INSTITUT DE …, priority 2021, published 2025).
Where no end group is shown, it is not given here. [ ]: non-standard residue; d: D form.

Key:
3T3-L1 mouse adipocytes = test: Lipolytic activity: glycerol release in differentiated 3T3-L1 mouse adipocytes (12 h); format: cell-based; details: 3T3-L1 mouse adipocytes, 12 h
Procedure: JCRB9014-A) from Tebu-Bio (Tebu-bio, Barcelona, Spain). Briefly, mouse adipocytes (3T3-L1 cells) were cultured in 48 well plates as described previously (Saez-Lopez et al., 2020). Adipocytes were differentiated using cell culture reagents purchased from Tebu-Bio and following the manufacturer's instructions. At day of differentiation cells were treated in duplicates with vehicle (DMSO), Caffeine (100 μg/ml), and each of the peptides at the specified doses in Table 6a below. At the end of the experiment (12 h), supernatants were collected and glycerol content was measured using a Glycerol Assay Kit (Sigma) following manufacturer's instructions.

[1] = tested on: human subcutaneoous mature adipocytes; test: Lipolytic activity: glycerol release in human adipocytes (Lipolysis Assay kit); format: cell-based; details: human subcutaneous mature adipocytes

Substance: DPEGLFY (H-[dD][dP][dE]G[dL][dF][dY]-OH; SMILES CC(C)C[C@@H](NC(=O)CNC(=O)[C@@H](CCC(=O)O)NC(=O)[C@H]1CCCN1C(=O)[C@H](N)CC(=O)O)C(=O)N[C@H](Cc1ccccc1)C(=O)N[C@H](Cc1ccc(O)cc1)C(=O)O) [GP3D-DM2, N-term NH2, C-term COOH]
- Lipolysis Activity measured as Glycerol (μM) release in media (3T3-L1 mouse adipocytes; 1 μg/ml): 303 µM
- Lipolysis Activity measured as Glycerol (μM) release in media ([1]; 25 μg/ml): 15.77 µM
- Lipolysis Activity measured as Glycerol (μM) release in media ([1]; 50 μg/ml): 34.83 µM
- Lipolysis Activity measured as Glycerol (μM) release in media ([1]; 75 μg/ml): 48.40 µM
- Lipolysis Activity measured as Glycerol (μM) release in media ([1]; 100 μg/ml): 52.24 µM

Substance: TWDPEG (H-[dT][dW][dD][dP][dE]G-OH; SMILES C[C@H](O)[C@@H](N)C(=O)N[C@H](Cc1c[nH]c2ccccc12)C(=O)N[C@H](CC(=O)O)C(=O)N1CCC[C@@H]1C(=O)N[C@H](CCC(=O)O)C(=O)NCC(=O)O) [GP3D-6 VII VIII IX X, N-term NH2, C-term COOH]
- Lipolysis Activity measured as Glycerol (μM) release in media (3T3-L1 mouse adipocytes; 1 μg/ml): 404 µM
- Lipolysis Activity measured as Glycerol (μM) release in media (3T3-L1 mouse adipocytes; 10 μg/ml): 327 µM

Substance: TDPEGVIY (H-[dT][dD][dP][dE]G[dV][dI][dY]-OH; not fully specified) [GP3D-8 II IX, N-term NH2, C-term COOH]
- Lipolysis Activity measured as Glycerol (μM) release in media (3T3-L1 mouse adipocytes; 1 μg/ml): 557 µM
- Lipolysis Activity measured as Glycerol (μM) release in media (3T3-L1 mouse adipocytes; 10 μg/ml): 508 µM
- Lipolysis Activity measured as Glycerol (μM) release in media (3T3-L1 mouse adipocytes; 100 μg/ml): 370 µM

Substance: TDPEGVIFY (H-[dT][dD][dP][dE]G[dV][dI][dF][dY]-OH; not fully specified) [GP3D-9 II, N-term NH2, C-term COOH]
- Lipolysis Activity measured as Glycerol (μM) release in media (3T3-L1 mouse adipocytes; 100 μg/ml): 315 µM

Substance: TDPEGVIF (H-[dT][dD][dP][dE]G[dV][dI][dF]-OH; not fully specified) [GP3D-8 II X, N-term NH2, C-term COOH]
- Lipolysis Activity measured as Glycerol (μM) release in media (3T3-L1 mouse adipocytes; 1 μg/ml): 391 µM
- Lipolysis Activity measured as Glycerol (μM) release in media (3T3-L1 mouse adipocytes; 10 μg/ml): 434 µM
- Lipolysis Activity measured as Glycerol (μM) release in media (3T3-L1 mouse adipocytes; 100 μg/ml): 493 µM

Substance: DPEGVIFY (H-[dD][dP][dE]G[dV][dI][dF][dY]-OH; not fully specified) [GP3D-8 I II, N-term NH2, C-term COOH]
- Lipolysis Activity measured as Glycerol (μM) release in media (3T3-L1 mouse adipocytes; 1 μg/ml): 401 µM
- Lipolysis Activity measured as Glycerol (μM) release in media (3T3-L1 mouse adipocytes; 10 μg/ml): 474 µM
- Lipolysis Activity measured as Glycerol (μM) release in media (3T3-L1 mouse adipocytes; 100 μg/ml): 468 µM

Substance: Ac-TWDPEGVIFY-NH2 (Ac-[dT][dW][dD][dP][dE]G[dV][dI][dF][dY]-NH2; SMILES CC[C@@H](C)[C@@H](NC(=O)[C@H](NC(=O)CNC(=O)[C@@H](CCC(=O)O)NC(=O)[C@H]1CCCN1C(=O)[C@@H](CC(=O)O)NC(=O)[C@@H](Cc1c[nH]c2ccccc12)NC(=O)[C@H](NC(C)=O)[C@H](C)O)C(C)C)C(=O)N[C@H](Cc1ccccc1)C(=O)N[C@H](Cc1ccc(O)cc1)C(N)=O) [GP3D-AcNH2, N-term CH3CONH, C-term CONH2]
- Lipolysis Activity measured as Glycerol (μM) release in media (3T3-L1 mouse adipocytes; 1 μg/ml): 606 µM
- Lipolysis Activity measured as Glycerol (μM) release in media (3T3-L1 mouse adipocytes; 10 μg/ml): 464 µM
- Lipolysis Activity measured as Glycerol (μM) release in media (3T3-L1 mouse adipocytes; 100 μg/ml): 472 µM

Substance: WDPEGVY (H-[dW][dD][dP][dE]G[dV][dY]-OH; SMILES CC(C)[C@@H](NC(=O)CNC(=O)[C@@H](CCC(=O)O)NC(=O)[C@H]1CCCN1C(=O)[C@@H](CC(=O)O)NC(=O)[C@H](N)Cc1c[nH]c2ccccc12)C(=O)N[C@H](Cc1ccc(O)cc1)C(=O)O) [GP3D-7 I VIII IX, N-term NH2, C-term COOH]
- Lipolysis Activity measured as Glycerol (μM) release in media (3T3-L1 mouse adipocytes; 10 μg/ml): 314 µM

Substance: TWDPEGVIF (H-[dT][dW][dD][dP][dE]G[dV][dI][dF]-OH; not fully specified) [GP3D-9 X, N-term NH2, C-term COOH]
- Lipolysis Activity measured as Glycerol (μM) release in media (3T3-L1 mouse adipocytes; 100 μg/ml): 493 µM

Substance: WDPEG (H-[dW][dD][dP][dE]G-OH; SMILES N[C@H](Cc1c[nH]c2ccccc12)C(=O)N[C@H](CC(=O)O)C(=O)N1CCC[C@@H]1C(=O)N[C@H](CCC(=O)O)C(=O)NCC(=O)O) [GP3D-5 I VII VIII IX X, N-term NH2, C-term COOH]
- Lipolysis Activity measured as Glycerol (μM) release in media (3T3-L1 mouse adipocytes; 1 μg/ml): 368 µM
- Lipolysis Activity measured as Glycerol (μM) release in media (3T3-L1 mouse adipocytes; 10 μg/ml): 349 µM
- Lipolysis Activity measured as Glycerol (μM) release in media (3T3-L1 mouse adipocytes; 100 μg/ml): 398 µM

Substance: TWDPEGVI (H-[dT][dW][dD][dP][dE]G[dV][dI]-OH; not fully specified) [GP3D-8 IX X, N-term NH2, C-term COOH]
- Lipolysis Activity measured as Glycerol (μM) release in media (3T3-L1 mouse adipocytes; 1 μg/ml): 396 µM
- Lipolysis Activity measured as Glycerol (μM) release in media (3T3-L1 mouse adipocytes; 10 μg/ml): 383 µM
- Lipolysis Activity measured as Glycerol (μM) release in media (3T3-L1 mouse adipocytes; 100 μg/ml): 528 µM

Substance: DPEGVFY (H-[dD][dP][dE]G[dV][dF][dY]-OH; SMILES CC(C)[C@@H](NC(=O)CNC(=O)[C@@H](CCC(=O)O)NC(=O)[C@H]1CCCN1C(=O)[C@H](N)CC(=O)O)C(=O)N[C@H](Cc1ccccc1)C(=O)N[C@H](Cc1ccc(O)cc1)C(=O)O) [GP3D-7 I II VIII, N-term NH2, C-term COOH]
- Lipolysis Activity measured as Glycerol (μM) release in media (3T3-L1 mouse adipocytes; 1 μg/ml): 485 µM
- Lipolysis Activity measured as Glycerol (μM) release in media (3T3-L1 mouse adipocytes; 10 μg/ml): 325 µM
- Lipolysis Activity measured as Glycerol (μM) release in media (3T3-L1 mouse adipocytes; 100 μg/ml): 340 µM

Substance: DPEGVLY (H-[dD][dP][dE]G[dV][dL][dY]-OH; SMILES CC(C)C[C@@H](NC(=O)[C@H](NC(=O)CNC(=O)[C@@H](CCC(=O)O)NC(=O)[C@H]1CCCN1C(=O)[C@H](N)CC(=O)O)C(C)C)C(=O)N[C@H](Cc1ccc(O)cc1)C(=O)O) [GP3D-DM3, N-term NH2, C-term COOH]
- Lipolysis Activity measured as Glycerol (μM) release in media (3T3-L1 mouse adipocytes; 100 μg/ml): 307 µM

Substance: TWDPEGIFY (H-[dT][dW][dD][dP][dE]G[dI][dF][dY]-OH; not fully specified) [GP3D-9 VII, N-term NH2, C-term COOH]
- Lipolysis Activity measured as Glycerol (μM) release in media (3T3-L1 mouse adipocytes; 100 μg/ml): 354 µM

Substance: WDNEGLY (H-[dW][dD][dN][dE]G[dL][dY]-OH; SMILES CC(C)C[C@@H](NC(=O)CNC(=O)[C@@H](CCC(=O)O)NC(=O)[C@@H](CC(N)=O)NC(=O)[C@@H](CC(=O)O)NC(=O)[C@H](N)Cc1c[nH]c2ccccc12)C(=O)N[C@H](Cc1ccc(O)cc1)C(=O)O) [GP3D-DM4, N-term NH2, C-term COOH]
- Lipolysis Activity measured as Glycerol (μM) release in media (3T3-L1 mouse adipocytes; 1 μg/ml): 469 µM
- Lipolysis Activity measured as Glycerol (μM) release in media (3T3-L1 mouse adipocytes; 10 μg/ml): 416 µM
- Lipolysis Activity measured as Glycerol (μM) release in media (3T3-L1 mouse adipocytes; 100 μg/ml): 309 µM

Substance: TWDPEGVIFY [GP3D-NH2] ([dT][dW][dD][dP][dE]G[dV][dI][dF][dY]-NH2; N-terminus assumed; SMILES CC[C@@H](C)[C@@H](NC(=O)[C@H](NC(=O)CNC(=O)[C@@H](CCC(=O)O)NC(=O)[C@H]1CCCN1C(=O)[C@@H](CC(=O)O)NC(=O)[C@@H](Cc1c[nH]c2ccccc12)NC(=O)[C@H](N)[C@H](C)O)C(C)C)C(=O)N[C@H](Cc1ccccc1)C(=O)N[C@H](Cc1ccc(O)cc1)C(N)=O) [N-term NH2, C-term CONH2]
- Lipolysis Activity measured as Glycerol (μM) release in media (3T3-L1 mouse adipocytes; 1 μg/ml): 506 µM
- Lipolysis Activity measured as Glycerol (μM) release in media (3T3-L1 mouse adipocytes; 10 μg/ml): 449 µM
- Lipolysis Activity measured as Glycerol (μM) release in media (3T3-L1 mouse adipocytes; 100 μg/ml): 368 µM

Substance: WDPEGVIFY (H-[dW][dD][dP][dE]G[dV]I[dF][dY]-OH; not fully specified (residue 7)) [GP3D-9 I, N-term NH2, C-term COOH]
- Lipolysis Activity measured as Glycerol (μM) release in media (3T3-L1 mouse adipocytes; 100 μg/ml): 344 µM

Substance: TWDPEVIFY (H-[dT][dW][dD][dP][dE][dV][dI][dF][dY]-OH; not fully specified) [GP3D-9 VI, N-term NH2, C-term COOH]
- Lipolysis Activity measured as Glycerol (μM) release in media (3T3-L1 mouse adipocytes; 100 μg/ml): 315 µM

Substance: TWPEGVIFY (H-[dT][dW][dP][dE]G[dV][dI][dF][dY]-OH; not fully specified) [GP3D-9 III, N-term NH2, C-term COOH]
- Lipolysis Activity measured as Glycerol (μM) release in media (3T3-L1 mouse adipocytes; 100 μg/ml): 346 µM
